The values that follow come from patent publication EP1857450A1, “Novel enantiomeric compounds for treatment of cardiac arrhythmias and methods of use” (Aryx Therapeutics, priority 1999, dated 2001).

In data set [1] the test system is anesthetized rats. The experiment in a line: Anti-arrhythmic activity in anesthetized rats (benzene/adrenaline challenge, EKG recording). Format: in vivo, Male Sprague-Dawley rats. As to conditions: for time at which activity against VPB is lost: drug administration time 0 to 120 min; for PR interval / QRS interval / QT interval / Heart rate (beats/minute) / Inhibition of tachycardia / Number of VPB / Inhibition of VPB: isolated enantiomer as compared to the respective racemate; for PR interval / QRS interval / QT interval: EKG; for Number of VPB / Inhibition of VPB: benzene/adrenaline challenge; for Inhibition of VPB: 4 mg/kg i.v. then 12 mg/kg/h for 2 hours; for activity against VPB at the end of the washout period: time 180 min; for protection against tachyarrhythmia (increased heart rate) produced by adrenaline: potency: drug administered from time 0 to time 120 minutes; for inhibition of the formation of ventricular premature beats (VPB): whole period of drug administration (time 0 to 120 min). The procedure:
Male Sprague-Dawley rats with body weights of 410 ± 30 g (Harlan Sprague Dawley Inc., Indianapolis, IN), were anesthetized with sodium pentobarbital (50 mg/kg i.p. - Butler Co., Columbus, OH). The skin from the neck area was removed and the jugular veins on both sides were cleared of connective tissue. Both jugular veins and the left carotid artery were isolated, and the latter tied up cranially with a surgical silk (ETHICON 4-0, Ethicon Inc., Australia). A plastic catheter ([…] 19ga, Vecton Dickinson, Sandy, UT), filled with a solution containing 10% sodium heparin (Elkins-Sinn Inc., Cherry Hill, NJ) in normal saline (100 U/ml sodium heparin), was introduced into the artery and fixed with surgical silk.
The catheter was connected to a pressure transducer (OHMEDA P23-XL, Ohmeda Medical Devices Division Inc., Madison, WI), filled with the same heparinized 0.9% NaCl solution, to register beat-to-beat arterial pressure. Needle electrodes were inserted s.c., and together with the pressure transducer, were joined to a GOULD TA 2000 recorder. Leads II, aVF and intraarterial blood pressure were monitored simultaneously throughout the experiments and recorded at certain intervals at 50 and 200 mm/sec paper speed.
The surgery was completed with an incision on the trachea where a short plastic tubing was placed and the animal was connected to a rodent-model ventilator (HARVARD Model 683, Harvard Apparatus, Inc., Holliston, MA). The animals were ventilated in a controlled way, depending on their spontaneous breathing frequency (55-75/min).
Drug administrations were carried out through i.v. catheters (TERUMO 24 GA*3/4", Terumo Medical Corp., Elkton, MD) inserted into both jugular veins. The left side was used for drug infusions by means of a syringe pump (SAGE INSTRUMENTS, Model 341B, Orion Res. Inc., Boston, MA), and the right side was used for adrenaline injections. The experiments were started after at least 15 minutes of stabilization. Benzene/adrenaline challenges were performed as follows: the respirator inlet was connected to a 50-ml bubbler half-full with benzene (Fisher Scientific, Fair Lawn, NJ) so that the inspired air was saturated with benzene vapor. The animal was ventilated with benzene vapor for two minutes. The tidal volume was typically 1 ml/100g of animal. During the last 30 seconds of benzene ventilation, 10 µg/kg adrenaline solution (in 0.9% NaCl) was injected into the right jugular vein. […] These arrhythmias could be elicited repeatedly. After three control VTs (at -30, -20 and -10 minutes), the test compounds were injected slowly during 30 seconds at a dose of 4 mg/kg i.v., immediately followed by a slow infusion of 12 mg/kg/h for 2 hours. The flow rate during the infusion period was 1 ml/h.
There were 5 rats per test compound and each animal served as its own control. The ability of the different drugs to suppress arrhythmias was tested against repeated benzene/adrenaline challenges at 5, 15, 30, 45, 60, 90, 120 (end of drug infusion), 135, 150, 165 and 180 minutes after the i.v. bolus injection. The amplitudes of the systolic arterial pressure and diastolic arterial pressure […] with the help of a pressure-amplitude calibration curve. Heart rate, number of ventricular complexes during the occurrence of VTs and VPBs, and certain ECG parameters (PR, QRS, QT durations and RR cycle lengths in msec) were also recorded and measured manually. At each time-point, 3-5 cycles were measured and the average values were entered into EXCEL Windows 97. The average and standard deviation for the five experimental animals per compound were calculated.

Data set [2] is classed as in vitro ADME. Conditions: human. The procedure:
Venous blood (60 ml) was collected in heparinized 15-ml Vacutainer® tubes from the forearm of five human volunteers. Each tube contained 1,000 units of heparin sodium salt. The blood was immediately centrifuged at 2,000 g for 10 minutes and the plasma was collected. Immediately after collection, the plasma was divided into 2-ml aliquots in borosilicate glass tubes (5-ml capacity) capped with a plastic stopper. The tubes were then equilibrated in a 37°C-water bath for at least 15 minutes before the test samples were added.
Stock solutions were prepared by dissolving 25 µmoles (about 18 mg) of each of the test compounds in 10 ml of deionized water. To each of the glass tubes containing 2 ml of fresh plasma, equilibrated at 37°C, was added 40 µl of the stock solutions (one test compound per tube). The plasma/stock solutions were then mixed. Samples (250 µl) were collected at time 0 (immediately after mixing test compounds in plasma) and then at 30, 60, 90, 120, 180, 240, and 300 minutes. The test tubes were capped, to avoid concentration due to evaporation, and left in the 37°C bath during the entire experiment. Each aliquot was immediately introduced into a 1.5-ml microfuge tube containing 20 µl of a 0.01% solution of diethyl paranitrophenylphosphate (paraoxon) in ethanol in order to inhibit esterase activity. The tubes were then capped and vortexed, then kept at -20°C until analysis. The samples were thawed and mixed with 750 µl of a 0.1 % solution of trifluoroacetic acid (TFA) in acetonitrile, vortexed for thorough mixing, and then centrifuged at 12,000 g for 15 minutes. The supernatant was collected for injection in the HPLC system.
The HPLC mobile phase consisted of acetonitrile and water containing 0.1% TFA and 400 mg/L benzyltriethylammonium chloride (BTEAC) in the following proportions and flow rates: 85% acetonitrile and 15% water at 2.0 ml/min. The detection wavelength was set at 242 nm, and the injected volume was 100 µL. The HPLC peaks were recorded, and the integrated values were plotted against time using the SIGMAPLOT software version 4.0 for WINDOWS. The resulting curves were fitted to a first-order exponential decay equation from which hydrolysis half-lives were calculated.

For the compound `CC[C@@H](C)OC(=O)Cc1oc2ccccc2c1C(=O)c1cc(I)c(OCCN(CC)CC)c(I)c1` [Compound R-2042, (R)-sec-Butyl 2-[3-(3,5-diiodo-4-(2-diethylaminoethyloxy)benzoyl)]benzofurane-acetate], the “time at which activity against VPB is lost” value in data set [1] (benzene vapors and adrenaline) was around 100 min. In data set [1], the PR interval result was “shorter”, the QRS interval result is on record as “no change”, the QT interval result is recorded as “no change” and the “Number of VPB” value was “lower”. In data set [1], the “Inhibition of VPB” value is “longer” and the “activity against VPB at the end of the washout period” value (shortened to “activity against VPB at the end”) is “completely inactive”. For the same compound, in data set [1] (adrenaline injection), the “Heart rate (beats/minute)” value was “lower” and the Inhibition of tachycardia entry is reported as “longer”. For the same compound, the “Plasma half-life” value in data set [2] turned out to be 5.0 h.

Regarding `CCN(CC)CCOc1c(I)cc(C(=O)c2c(CC(=O)O[C@@H](C)C(C)C)oc3ccccc23)cc1I` [Compound S-2055, (S) - (3 - Methyl) - 2 butyl 2-[3-(3,5-diiodo-4-(2-diethylaminoethyloacy)benzoyl)]benzo-furaneacetate], in data set [1] (benzene vapors and adrenaline), the “time at which activity against VPB is lost” value is around 40 min. In data set [1], the PR interval result is recorded as “shorter”, the QRS interval entry is “longer”, the QT interval entry is recorded as “no change” and the “Number of VPB” value is “lower”. Besides, in data set [1], the “Inhibition of VPB” value was “longer” and the “activity against VPB at the end” value is “completely inactive”. In addition, in data set [1] (adrenaline injection), the “Heart rate (beats/minute)” value is “lower” and the Inhibition of tachycardia entry was “longer”. For the same compound, the “Plasma half-life” value in data set [2] was 8.8 h.

On to `CC[C@H](C)OC(=O)Cc1oc2ccccc2c1C(=O)c1cc(I)c(OCCN(CC)CC)c(I)c1` [R,S-2042], for which the “activity against VPB of the racemate relative to the enantiomers” value in data set [1] (benzene vapors and adrenaline) is recorded as “even less active than either the R- or the S-isomer”. Besides, the “protection against tachyarrhythmia (increased heart rate) produced by adrenaline: potency” value in data set [1] is “the least potent and shortest acting”.

As for `CCN(CC)CCOc1c(I)cc(C(=O)c2c(CC(=O)O[C@H](C)C(C)C)oc3ccccc23)cc1I` [Compound R-2055, (R)-(3-Methyl)-2butyl 2-[3-(3,5-diiodo-4-(2-diethylaminoethyloxy)benzoyl)]benzo-furaneacetate], in data set [1] (adrenaline injection), the “duration of effect on tachycardia” value is on record as “longer-lasting effect than S-2055”, the “Heart rate (beats/minute)” value was “lower” and the Inhibition of tachycardia result is “longer”. Moreover, in data set [1], the PR interval entry is listed as “shorter”, the QRS interval entry is “longer”, the QT interval result is “no change” and the “Number of VPB” value is on record as “lower”. Also, in data set [1], the “Inhibition of VPB” value is “longer” and the “activity against VPB at the end” value is listed as “still retained part of its activity”. The “inhibition of the formation of ventricular premature beats (VPB)” value in data set [1] (benzene vapors and adrenaline) is listed as “totally inhibited the formation of ventricular premature beats”. The “Plasma half-life” value in data set [2] came out at 11.7 h.

As for `CC[C@H](C)OC(=O)Cc1oc2ccccc2c1C(=O)c1cc(I)c(OCCN(CC)CC)c(I)c1` [Compound S-2042, (S)-sec-Butyl 2-[3-(3,5-diiodo-4-(2-diethylaminoethytoxy)benzoyl)]benzofurane-acetate], in data set [1], the “protection against tachyarrhythmia (increased heart rate) produced by adrenaline: potency” value was “more potent and longer acting then R-2042”; the PR interval result is recorded as “longer”; the QRS interval entry is given as “longer”; the QT interval result is “longer”. In addition, in data set [1], the “Number of VPB” value was “lower”, the “Inhibition of VPB” value is “longer” and the “activity against VPB at the end” value is “still retained part of its activity”. Further, in data set [1] (adrenaline injection), the “Heart rate (beats/minute)” value is recorded as “lower” and the Inhibition of tachycardia entry is “longer”. In addition, in data set [1] (rat, in vivo), the “effects on the PR segment of the EKG recording (Class-IV activity): potency” value was “much more potent than R-2042 and the racemate R,S-2042”; the “effects on the QT segment of the EKG recording (Class-III properties): potency” value is “the most potent and the longest acting”. Besides, in data set [1] (benzene vapors and adrenaline), the “inhibition of the formation of ventricular premature beats (VPB)” value was “totally inhibited the formation of ventricular premature beats”. Besides, in data set [2], the “Plasma half-life” value amounted to 7.3 h.

With `CC[C@H](C)OC(=O)Cc1oc2ccccc2c1C(=O)c1cc(I)c(OCCN(CC)CC)c(I)c1` [ATI-2042], in data set [1], the “protection against tachyarrhythmia (increased heart rate) produced by adrenaline: potency” value is listed as “very good protection against this tachyarrhythmia”.

`CCN(CC)CCOc1c(I)cc(C(=O)c2c(CC(=O)OC(C)C(C)C)oc3ccccc23)cc1I` (stereo not drawn) [ATI-2055]: the “protection against tachyarrhythmia (increased heart rate) produced by adrenaline: potency” value in data set [1] is “inhibits the tachycardia”.
